In the supplement of paper PMC10627819 one finds Bliss interaction score data, which are given here for 10 molecules.

Common to all, as to test: Bliss interaction score (quartile over a dose matrix) (fitness difference); higher = more antagonism (negative = synergy)
One assay relates to S. aureus Newman. The method, boiled down: (§1)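 Fitness was OD595 at entry into stationary phase divided by the plate's robust no-drug mean and capped at 1; single-drug fitness was inferred from combination data. The Bliss score is observed minus expected (product) fitness, summarised by quartiles over technical, biological and donor/recipient replicates.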
Another assay relates to S. pneumoniae D39V. The method, boiled down:
as §1

The test system of a further assay is B. subtilis 168. The method, boiled down:
as §1

The next assay deals with S. aureus DSM 20231. The method, boiled down: as §1
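Note: first quartile when negative (synergy) and third quartile when positive (antagonism).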

For the molecule `CN[C@H](CC(C)C)C(=O)N[C@H]1C(=O)N[C@@H](CC(N)=O)C(=O)N[C@H]2C(=O)N[C@H]3C(=O)N[C@H](C(=O)N[C@H](C(=O)O)c4cc(O)cc(O)c4-c4cc3ccc4O)[C@H](O[C@H]3C[C@](C)(N)[C@@H](O)[C@H](C)O3)c3ccc(c(Cl)c3)Oc3cc2cc(c3O[C@@H]2O[C@H](CO)[C@@H](O)[C@H](O)[C@H]2O[C@H]2C[C@](C)(NCc3ccc(-c4ccc(Cl)cc4)cc3)[C@@H](O)[C@H](C)O2)Oc2ccc(cc2Cl)[C@H]1O` [Oritavancin] + C/C(=C\C(=O)OCCCCCCCCC(=O)O)C[C@@H]1OC[C@H](C[C@@H]2O[C@H]2[C@@H](C)[C@H](C)O)[C@@H](O)[C@H]1O [Pseudomonic acid], the Bliss interaction score worked out at 0.0197 in the assay on S. aureus Newman, 0.0558 in the assay with S. pneumoniae D39V, 0.0341 in the assay on B. subtilis 168 and 0.0201 with S. aureus DSM 20231.
For `CN[C@H](CC(C)C)C(=O)N[C@H]1C(=O)N[C@@H](CC(N)=O)C(=O)N[C@H]2C(=O)N[C@H]3C(=O)N[C@H](C(=O)N[C@H](C(=O)O)c4cc(O)cc(O)c4-c4cc3ccc4O)[C@H](O[C@H]3C[C@](C)(N)[C@@H](O)[C@H](C)O3)c3ccc(c(Cl)c3)Oc3cc2cc(c3O[C@@H]2O[C@H](CO)[C@@H](O)[C@H](O)[C@H]2O[C@H]2C[C@](C)(NCc3ccc(-c4ccc(Cl)cc4)cc3)[C@@H](O)[C@H](C)O2)Oc2ccc(cc2Cl)[C@H]1O` [Oritavancin] + CC1(C)S[C@@H]2[C@H](NC(=O)Cc3ccccc3)C(=O)N2[C@H]1C(=O)O [PenicillinG], the Bliss interaction score in the assay on S. aureus Newman was -0.066; in the assay on S. pneumoniae D39V, 0.0412; in the assay on B. subtilis 168, 0.0358; in the assay with S. aureus DSM 20231, 0.0356.
Consider `CN[C@H](CC(C)C)C(=O)N[C@H]1C(=O)N[C@@H](CC(N)=O)C(=O)N[C@H]2C(=O)N[C@H]3C(=O)N[C@H](C(=O)N[C@H](C(=O)O)c4cc(O)cc(O)c4-c4cc3ccc4O)[C@H](O[C@H]3C[C@](C)(N)[C@@H](O)[C@H](C)O3)c3ccc(c(Cl)c3)Oc3cc2cc(c3O[C@@H]2O[C@H](CO)[C@@H](O)[C@H](O)[C@H]2O[C@H]2C[C@](C)(NCc3ccc(-c4ccc(Cl)cc4)cc3)[C@@H](O)[C@H](C)O2)Oc2ccc(cc2Cl)[C@H]1O` [Oritavancin] + CC1=C\[C@@H](O)CC(=O)Cc2nc(co2)C(=O)N2CCC=C2C(=O)O[C@H](C(C)C)[C@H](C)/C=C/C(=O)NC\C=C\1 [Virginiamycin M1], for which the Bliss interaction score in the assay on S. aureus Newman was -0.0713; in the assay on S. pneumoniae D39V it was 0.0739; in the assay on B. subtilis 168, -0.0178; with S. aureus DSM 20231, -0.0348.
As for `CN[C@H](CC(C)C)C(=O)N[C@H]1C(=O)N[C@@H](CC(N)=O)C(=O)N[C@H]2C(=O)N[C@H]3C(=O)N[C@H](C(=O)N[C@H](C(=O)O)c4cc(O)cc(O)c4-c4cc3ccc4O)[C@H](O[C@H]3C[C@](C)(N)[C@@H](O)[C@H](C)O3)c3ccc(c(Cl)c3)Oc3cc2cc(c3O[C@@H]2O[C@H](CO)[C@@H](O)[C@H](O)[C@H]2O[C@H]2C[C@](C)(NCc3ccc(-c4ccc(Cl)cc4)cc3)[C@@H](O)[C@H](C)O2)Oc2ccc(cc2Cl)[C@H]1O` [Oritavancin] + CCCCCCCCCC(=O)N[C@@H]1[C@H]([C@@H]([C@H](O[C@H]1OC2=C3C=C4C=C2OC5=C(C=C(C=C5)[C@H]([C@H]6C(=O)N[C@@H](C7=C(C(=CC(=C7)O)OC8[C@H]([C@H]([C@@H]([C@H](O8)CO)O)O)O)C9=C(C=CC(=C9)[C@H](C(=O)N6)NC(=O)[C@@H]4NC(=O)[C@@H]1C2=CC(=CC(=C2)OC2=C(C=CC(=C2)[C@H](C(=O)N[C@H](CC2=CC(=C(O3)C=C2)Cl)C(=O)N1)N)O)O)O)C(=O)O)O[C@H]1[C@@H]([C@H]([C@@H]([C@H](O1)CO)O)O)NC(=O)C)Cl)CO)O)O [Teicoplanin], the Bliss interaction score in the assay with S. aureus Newman (main component drawn) was -0.117; in the assay with S. pneumoniae D39V (main component drawn) it was 0.0813; in the assay with B. subtilis 168 (main component drawn) it was -0.0407; in the assay with S. aureus DSM 20231 (main component drawn) it was -0.0634.
As to `CN[C@H](CC(C)C)C(=O)N[C@H]1C(=O)N[C@@H](CC(N)=O)C(=O)N[C@H]2C(=O)N[C@H]3C(=O)N[C@H](C(=O)N[C@H](C(=O)O)c4cc(O)cc(O)c4-c4cc3ccc4O)[C@H](O[C@H]3C[C@](C)(N)[C@@H](O)[C@H](C)O3)c3ccc(c(Cl)c3)Oc3cc2cc(c3O[C@@H]2O[C@H](CO)[C@@H](O)[C@H](O)[C@H]2O[C@H]2C[C@](C)(NCc3ccc(-c4ccc(Cl)cc4)cc3)[C@@H](O)[C@H](C)O2)Oc2ccc(cc2Cl)[C@H]1O` [Oritavancin] + CCN(CC)CCOC(=O)c1ccc(N)cc1 [Procaine], the Bliss interaction score is -0.0513 with S. aureus Newman, -0.0615 in the assay with S. pneumoniae D39V, -0.0177 in the assay on B. subtilis 168 and -0.0785 with S. aureus DSM 20231.
Consider `CN[C@H](CC(C)C)C(=O)N[C@H]1C(=O)N[C@@H](CC(N)=O)C(=O)N[C@H]2C(=O)N[C@H]3C(=O)N[C@H](C(=O)N[C@H](C(=O)O)c4cc(O)cc(O)c4-c4cc3ccc4O)[C@H](O[C@H]3C[C@](C)(N)[C@@H](O)[C@H](C)O3)c3ccc(c(Cl)c3)Oc3cc2cc(c3O[C@@H]2O[C@H](CO)[C@@H](O)[C@H](O)[C@H]2O[C@H]2C[C@](C)(NCc3ccc(-c4ccc(Cl)cc4)cc3)[C@@H](O)[C@H](C)O2)Oc2ccc(cc2Cl)[C@H]1O` [Oritavancin] + CC[C@H]1OC(=O)[C@H](C)C(=O)[C@H](C)[C@@H](O[C@@H]2O[C@H](C)C[C@H](N(C)C)[C@H]2O)[C@](C)(OC)C[C@@H](C)C(=O)[C@H](C)[C@H]2N(CCCCn3cnc(-c4cccnc4)c3)C(=O)O[C@]12C [Telithromycin], for which the Bliss interaction score with S. aureus Newman is -0.0486; in the assay with S. pneumoniae D39V it was 0.0281; in the assay on B. subtilis 168, 0.0211; in the assay with S. aureus DSM 20231 it was -0.0333.
For `CN[C@H](CC(C)C)C(=O)N[C@H]1C(=O)N[C@@H](CC(N)=O)C(=O)N[C@H]2C(=O)N[C@H]3C(=O)N[C@H](C(=O)N[C@H](C(=O)O)c4cc(O)cc(O)c4-c4cc3ccc4O)[C@H](O[C@H]3C[C@](C)(N)[C@@H](O)[C@H](C)O3)c3ccc(c(Cl)c3)Oc3cc2cc(c3O[C@@H]2O[C@H](CO)[C@@H](O)[C@H](O)[C@H]2O[C@H]2C[C@](C)(NCc3ccc(-c4ccc(Cl)cc4)cc3)[C@@H](O)[C@H](C)O2)Oc2ccc(cc2Cl)[C@H]1O` [Oritavancin] + CN1C2=CC=CC=C2N=C3C1=CC=CC3=O [Pyocyanin], the Bliss interaction score with S. aureus Newman is -0.105; in the assay on S. pneumoniae D39V it was -0.0208; in the assay with B. subtilis 168, -0.0238; in the assay with S. aureus DSM 20231 it was -0.047.
Regarding `CN[C@H](CC(C)C)C(=O)N[C@H]1C(=O)N[C@@H](CC(N)=O)C(=O)N[C@H]2C(=O)N[C@H]3C(=O)N[C@H](C(=O)N[C@H](C(=O)O)c4cc(O)cc(O)c4-c4cc3ccc4O)[C@H](O[C@H]3C[C@](C)(N)[C@@H](O)[C@H](C)O3)c3ccc(c(Cl)c3)Oc3cc2cc(c3O[C@@H]2O[C@H](CO)[C@@H](O)[C@H](O)[C@H]2O[C@H]2C[C@](C)(NCc3ccc(-c4ccc(Cl)cc4)cc3)[C@@H](O)[C@H](C)O2)Oc2ccc(cc2Cl)[C@H]1O` [Oritavancin] + CN(C)c1cc(NC(=O)CNC(C)(C)C)c(O)c2c1C[C@H]1C[C@H]3[C@H](N(C)C)C(O)=C(C(N)=O)C(=O)[C@@]3(O)C(O)=C1C2=O [Tigecycline], the Bliss interaction score in the assay with S. aureus Newman is -0.0634; with S. pneumoniae D39V, 0.0458; in the assay on B. subtilis 168, -0.0328; in the assay on S. aureus DSM 20231, -0.0305.
For the molecule `CN[C@H](CC(C)C)C(=O)N[C@H]1C(=O)N[C@@H](CC(N)=O)C(=O)N[C@H]2C(=O)N[C@H]3C(=O)N[C@H](C(=O)N[C@H](C(=O)O)c4cc(O)cc(O)c4-c4cc3ccc4O)[C@H](O[C@H]3C[C@](C)(N)[C@@H](O)[C@H](C)O3)c3ccc(c(Cl)c3)Oc3cc2cc(c3O[C@@H]2O[C@H](CO)[C@@H](O)[C@H](O)[C@H]2O[C@H]2C[C@](C)(NCc3ccc(-c4ccc(Cl)cc4)cc3)[C@@H](O)[C@H](C)O2)Oc2ccc(cc2Cl)[C@H]1O` [Oritavancin] + CN(N=O)C(=O)N[C@@H](C=O)[C@@H](O)[C@H](O)[C@H](O)CO [Streptozotocin], the Bliss interaction score in the assay on S. aureus Newman is -0.063; with S. pneumoniae D39V it was -0.0337; with B. subtilis 168, -0.0355; with S. aureus DSM 20231 it was -0.0564.
With `CN[C@H](CC(C)C)C(=O)N[C@H]1C(=O)N[C@@H](CC(N)=O)C(=O)N[C@H]2C(=O)N[C@H]3C(=O)N[C@H](C(=O)N[C@H](C(=O)O)c4cc(O)cc(O)c4-c4cc3ccc4O)[C@H](O[C@H]3C[C@](C)(N)[C@@H](O)[C@H](C)O3)c3ccc(c(Cl)c3)Oc3cc2cc(c3O[C@@H]2O[C@H](CO)[C@@H](O)[C@H](O)[C@H]2O[C@H]2C[C@](C)(NCc3ccc(-c4ccc(Cl)cc4)cc3)[C@@H](O)[C@H](C)O2)Oc2ccc(cc2Cl)[C@H]1O` [Oritavancin] + CN[C@@H]1[C@H](O)[C@H](NC)[C@H]2O[C@@]3(O)C(=O)C[C@@H](C)O[C@H]3O[C@@H]2[C@H]1O [Spectinomycin], the Bliss interaction score in the assay with S. aureus Newman is -0.154; with S. pneumoniae D39V it was 0.0219; in the assay on B. subtilis 168, -0.0238; in the assay with S. aureus DSM 20231, -0.0487.
